Measured values reported in patent US8722849B2, “Polypeptides” (Novo Nordisk A/S, priority 2011, dated 2014).
≈ marks a conversion by molar mass, not a printed value. Like-named read-outs stand apart in the source and are kept apart here. Starred links: 1 amine or outer side, 2 acyl side, 3 side chain; linkers in the order of their positions; H or OH if unused. Positions of bridges follow the written chain, without caps; N, C: chain ends. Residues, ends and D or L forms follow the SMILES beside them. *: point of attachment. C20 diacid = O=C(O)CCCCCCCCCCCCCCCCCCC(=O)*; γGlu = O=C(O)[C@H](CCC(=O)[*:2])N[*:1]

Experiments:
[1] = target: T1, human amylin receptor (amylin 3(a) receptor: human calcitonin receptor + RAMP-3) (Homo sapiens, UniProt O60896+P30988); assay: Assay (II)a functional CRE-luciferase assay, human amylin receptor; assay type: cell-based; settings: Table 2; BHK amylin 3(a)-receptor/CRE-luc cells
T1 construct: expressed in transfected cells; host or cells: BHK570
T1 sequence (P30988 25-474): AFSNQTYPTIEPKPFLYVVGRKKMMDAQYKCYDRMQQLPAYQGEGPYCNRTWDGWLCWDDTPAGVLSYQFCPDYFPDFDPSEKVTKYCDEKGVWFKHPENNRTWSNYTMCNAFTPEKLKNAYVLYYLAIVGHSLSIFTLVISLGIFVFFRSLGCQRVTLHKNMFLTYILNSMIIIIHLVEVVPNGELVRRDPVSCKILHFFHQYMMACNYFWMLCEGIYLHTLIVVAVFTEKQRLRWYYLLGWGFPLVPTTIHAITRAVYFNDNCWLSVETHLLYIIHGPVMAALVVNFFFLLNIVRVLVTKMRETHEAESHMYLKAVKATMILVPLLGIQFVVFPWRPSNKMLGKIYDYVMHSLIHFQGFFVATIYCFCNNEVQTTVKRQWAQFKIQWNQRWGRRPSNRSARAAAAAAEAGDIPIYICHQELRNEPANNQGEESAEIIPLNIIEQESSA
T1 sequence (O60896 24-148 partner): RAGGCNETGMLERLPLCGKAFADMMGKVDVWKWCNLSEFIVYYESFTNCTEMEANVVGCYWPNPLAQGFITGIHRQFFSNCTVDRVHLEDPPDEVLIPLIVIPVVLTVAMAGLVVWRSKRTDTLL

[2] = target: T2, human calcitonin receptor (Homo sapiens, UniProt P30988); assay: Assay (II)a functional CRE-luciferase assay, human calcitonin receptor; assay type: cell-based; settings: Table 7; human calcitonin (CTa) receptor
T2 construct: expressed in transfected cells; host or cells: BHK570
T2 sequence (P30988 25-474): T1 sequence (P30988 25-474)

[3] = target: T3, rat amylin 3(a) receptor (rat calcitonin(a) receptor + rat RAMP3) (Rattus norvegicus, UniProt P32214+Q9JJ73); assay: Assay (II)b functional cAMP FlashPlate assay, rat amylin receptor; assay type: cell-based; settings: Table 11
T3 construct: expressed in transfected cells; host or cells: BHK tk'ts 13
T3 sequence (P32214 25-479 isoform P32214-2 limits assumed): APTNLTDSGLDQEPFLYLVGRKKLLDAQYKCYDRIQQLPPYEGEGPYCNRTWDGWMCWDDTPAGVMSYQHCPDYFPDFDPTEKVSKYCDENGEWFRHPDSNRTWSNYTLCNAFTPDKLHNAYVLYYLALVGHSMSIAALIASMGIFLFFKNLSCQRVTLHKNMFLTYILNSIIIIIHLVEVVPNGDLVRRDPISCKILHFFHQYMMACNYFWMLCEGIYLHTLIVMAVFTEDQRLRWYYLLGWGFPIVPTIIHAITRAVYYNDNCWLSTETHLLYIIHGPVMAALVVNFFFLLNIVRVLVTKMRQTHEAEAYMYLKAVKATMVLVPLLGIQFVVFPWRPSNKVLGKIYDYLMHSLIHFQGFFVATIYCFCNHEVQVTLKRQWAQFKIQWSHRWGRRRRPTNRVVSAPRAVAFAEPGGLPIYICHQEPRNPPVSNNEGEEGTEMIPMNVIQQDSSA
T3 sequence (Q9JJ73 23-147 partner): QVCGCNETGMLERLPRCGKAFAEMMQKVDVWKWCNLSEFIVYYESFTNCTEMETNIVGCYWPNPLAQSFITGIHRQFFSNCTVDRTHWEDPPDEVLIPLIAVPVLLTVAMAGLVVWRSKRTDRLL
How it was run: (§1)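 cAMP accumulation in transiently transfected BHK tk'ts 13 cells, 100.000 cells/well, expressing rat calcitonin(a) receptor or its RAMP3 co-expression form (amylin 3(a)): 30 min stimulation with IBMX, 24 hours post-transfection. Readout by competition of cellular versus radiolabelled cAMP in FlashPlates, scintillation counted after 3 h.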

[4] = target: T4, rat calcitonin (a) receptor (Rattus norvegicus, UniProt P32214); assay: Assay (II)b functional cAMP FlashPlate assay, rat calcitonin receptor; assay type: cell-based; settings: Table 11; read-out: CTa receptor rat EC50
T4 construct: expressed in transfected cells; host or cells: BHK tk'ts 13
T4 sequence (P32214 25-479 isoform P32214-2 limits assumed): T3 sequence (P32214 25-479 isoform P32214-2 limits assumed)
How it was run: as §1

[5] = Assay (IV) determination of solubility; assay type: physicochemical
How it was run: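 Eight 100 mM buffers (glycylglycine pH 3.0–5.0, bistrispropane pH 6.0–8.0) each received an equal volume of polypeptide dissolved in water at ~500 nmol/ml. Soluble polypeptide was measured by HPLC following 18 hours at room temperature and centrifugation.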

[6] = bistrispropane buffer, pH 6, pH 6.0, read-out: Solubility pH 6.0
[7] = bistrispropane buffer, pH 6.5, pH 6.5, read-out: Solubility pH 6.5
[8] = bistrispropane buffer, pH 7, pH 7.0, read-out: Solubility pH 7.0
[9] = bistrispropane buffer, pH 7.5, pH 7.5, read-out: Solubility pH 7.5
[10] = bistrispropane buffer, pH 8, pH 8.0, read-out: Solubility pH 8.0
[11] = glycylglycine buffer, pH 3, pH 3.0, read-out: Solubility pH 3.0
[12] = glycylglycine buffer, pH 4, pH 4.0, 18 hours at room temperature, Table 2, read-out: Solubility pH 4.0
[13] = glycylglycine buffer, pH 4, pH 4.0, read-out: Solubility pH 4.0
[14] = glycylglycine buffer, pH 5, pH 5.0, read-out: Solubility pH 5.0

EC50 [1] | EC50 [2] | EC50 [3] | EC50 [4] | solubility at 18 h [5, 6] | solubility at 18 h [5, 7] | solubility at 18 h ([5]; bistrispropane buffer, pH 7, pH 7.0, 18 hours at room temperature, Table 3, read-out: Solubility pH 7.0) | solubility at 18 h [5, 8] | solubility at 18 h [5, 9] | solubility at 18 h [5, 10] | solubility at 18 h [5, 11] | solubility at 18 h [5, 12] | solubility at 18 h [5, 13] | solubility at 18 h [5, 14] | solubility at 18 h ([5]; pH 8.0, read-out: Solubility pH 8.0) | SMILES
0.131 nM | 0.126 nM | 0.187 nM | 1.17 nM | > 200 µM | 153 µM (≈ 683 µg/mL) | 191 µM (≈ 853 µg/mL) | 191 µM (≈ 853 µg/mL) | > 200 µM | > 200 µM | > 200 µM | > 200 µM | > 200 µM | > 200 µM | – | CC[C@H](C)[C@H](NC(=O)[C@@H]1CCCN1C(=O)CNC(=O)[C@H](Cc1ccccc1)NC(=O)[C@H](CC(N)=O)NC(=O)[C@H](CC(N)=O)NC(=O)[C@H](CO)NC(=O)[C@H](CO)NC(=O)[C@H](Cc1c[nH]cn1)NC(=O)[C@H](Cc1c[nH]cn1)NC(=O)[C@H](CC(C)C)NC(=O)[C@H](Cc1ccccc1)NC(=O)[C@H](CCC(=O)O)NC(=O)[C@H](C)NC(=O)[C@H](CC(C)C)NC(=O)[C@H](CCCNC(=N)N)NC(=O)[C@H](CCC(N)=O)NC(=O)[C@@H](NC(=O)[C@H](C)NC(=O)[C@@H]1CSSC[C@H](NC(=O)[C@H](Cc2c[nH]cn2)NC(=O)CC[C@H](NC(=O)CCCCCCCCCCCCCCCCCCC(=O)O)C(=O)O)C(=O)N[C@@H](CC(N)=O)C(=O)N[C@@H]([C@@H](C)O)C(=O)N[C@@H](C)C(=O)N[C@@H]([C@@H](C)O)C(=O)N1)[C@@H](C)O)C(=O)N[C@@H](CC(C)C)C(=O)N1CCC[C@H]1C(=O)N1CCC[C@H]1C(=O)N[C@H](C(=O)N[C@@H](CC(N)=O)C(=O)N[C@H](C(=O)NCC(=O)N[C@@H](CO)C(=O)N[C@@H](CC(N)=O)C(=O)N[C@H](C(=O)N[C@@H](Cc1ccc(O)cc1)C(N)=O)[C@@H](C)O)C(C)C)[C@@H](C)O [Example 18, N-alpha-[(S)-4-Carboxy-4-(19-carboxynonadecanoylamino)butyryl]-[His1,Glu14,His17]-pramlintide] ({C20 diacid-γGlu}-HCNTATCATQRLAEFLHHSSNNFGPILPPTNVGSNTY-NH2; disulfide 2-7 (inferred); C-terminus assumed)
0.192 nM | 0.429 nM | 0.133 nM | 1.34 nM | > 200 µM | 87 µM (≈ 416 µg/mL) | – | – | – | – | > 200 µM | > 200 µM | > 200 µM | > 200 µM | 1 µM (≈ 4.78 µg/mL) | CC[C@H](C)[C@H](NC(=O)[C@@H]1CCCN1C(=O)CNC(=O)[C@H](Cc1ccccc1)NC(=O)[C@H](CC(N)=O)NC(=O)[C@H](CC(N)=O)NC(=O)[C@H](CO)NC(=O)[C@H](CO)NC(=O)[C@H](Cc1c[nH]cn1)NC(=O)[C@H](Cc1c[nH]cn1)NC(=O)[C@H](CC(C)C)NC(=O)[C@H](Cc1ccccc1)NC(=O)[C@H](CCC(=O)O)NC(=O)[C@H](C)NC(=O)[C@H](CC(C)C)NC(=O)[C@H](CCCNC(=N)N)NC(=O)[C@H](CCC(N)=O)NC(=O)[C@@H](NC(=O)[C@H](C)NC(=O)[C@@H]1CSSC[C@H](NC(=O)[C@H](Cc2c[nH]cn2)NC(=O)[C@H](Cc2c[nH]cn2)NC(=O)[C@H](Cc2c[nH]cn2)NC(=O)CC[C@H](NC(=O)CCCCCCCCCCCCCCCCCCC(=O)O)C(=O)O)C(=O)N[C@@H](CC(N)=O)C(=O)N[C@@H]([C@@H](C)O)C(=O)N[C@@H](C)C(=O)N[C@@H]([C@@H](C)O)C(=O)N1)[C@@H](C)O)C(=O)N[C@@H](CC(C)C)C(=O)N1CCC[C@H]1C(=O)N1CCC[C@H]1C(=O)N[C@H](C(=O)N[C@@H](CC(N)=O)C(=O)N[C@H](C(=O)NCC(=O)N[C@@H](CO)C(=O)N[C@@H](CCCNC(=N)N)C(=O)N[C@H](C(=O)N[C@@H](Cc1ccc(O)cc1)C(N)=O)[C@@H](C)O)C(C)C)[C@@H](C)O [Example 21, N-alpha-[(S)-4-Carboxy-4-(19-carboxynonadecanoylamino)butyryl]-His-His-[His1,Glu14,His17,Arg35]-pramlintide] ({C20 diacid-γGlu}-HHHCNTATCATQRLAEFLHHSSNNFGPILPPTNVGSRTY-NH2; disulfide 4-9 (inferred))
0.0985 nM | 0.157 nM | 0.261 nM | 1.29 nM | > 200 µM | 57 µM (≈ 273 µg/mL) | – | 2 µM (≈ 9.56 µg/mL) | 1 µM (≈ 4.78 µg/mL) | 3 µM (≈ 14.3 µg/mL) | > 200 µM | > 200 µM | > 200 µM | > 200 µM | – | CC[C@H](C)[C@H](NC(=O)[C@@H]1CCCN1C(=O)CNC(=O)[C@H](Cc1ccccc1)NC(=O)[C@H](CC(N)=O)NC(=O)[C@H](CC(N)=O)NC(=O)[C@H](CO)NC(=O)[C@H](CO)NC(=O)[C@H](Cc1c[nH]cn1)NC(=O)[C@H](Cc1c[nH]cn1)NC(=O)[C@H](CC(C)C)NC(=O)[C@H](Cc1ccccc1)NC(=O)[C@H](CCC(=O)O)NC(=O)[C@H](C)NC(=O)[C@H](CC(C)C)NC(=O)[C@H](CCCNC(=N)N)NC(=O)[C@H](CCC(N)=O)NC(=O)[C@@H](NC(=O)[C@H](C)NC(=O)[C@@H]1CSSC[C@H](NC(=O)[C@H](Cc2c[nH]cn2)NC(=O)[C@H](Cc2c[nH]cn2)NC(=O)[C@H](Cc2c[nH]cn2)NC(=O)CC[C@H](NC(=O)CCCCCCCCCCCCCCCCCCC(=O)O)C(=O)O)C(=O)N[C@@H](CCCNC(=N)N)C(=O)N[C@@H]([C@@H](C)O)C(=O)N[C@@H](C)C(=O)N[C@@H]([C@@H](C)O)C(=O)N1)[C@@H](C)O)C(=O)N[C@@H](CC(C)C)C(=O)N1CCC[C@H]1C(=O)N1CCC[C@H]1C(=O)N[C@H](C(=O)N[C@@H](CC(N)=O)C(=O)N[C@H](C(=O)NCC(=O)N[C@@H](CO)C(=O)N[C@@H](CC(N)=O)C(=O)N[C@H](C(=O)N[C@@H](Cc1ccc(O)cc1)C(N)=O)[C@@H](C)O)C(C)C)[C@@H](C)O [Example 22, N-alpha-[(S)-4-Carboxy-4-(19-carboxynonadecanoylamino)butyryl]-His-His-[His1,Arg3,Glu14,His17]-pramlintide] ({C20 diacid-γGlu}-HHHCRTATCATQRLAEFLHHSSNNFGPILPPTNVGSNTY-NH2; disulfide 4-9 (inferred))
